One may read the CC50 as the concentration at which the toxic effect on the cells reaches its halfway point. Broadly, the EC50 is the concentration at which the effect is half-maximal. Broadly, the inhibition is the share of the control response that was lost under treatment. A low value points to a weak effect.

Results on 20 molecules are retold here after ChEMBL document CHEMBL1143030, “Synthesis and evaluation of 2-(2,6-dihalophenyl)-3-pyrimidinyl-1,3-thiazolidin-4-one analogues as anti-HIV-1 agents” (Bioorg Med Chem, 2007).

A short description of data set [1]: Selectivity index, ratio of CC50 for mock-infected MT4 cells to EC50 for HIV1 3B. Format: functional.
The nature of data set [2]: Cytotoxicity against mock-infected MT4 cells assessed as reduction of cell viability. The format is cell-based. As to conditions: human.
Data set [3] deals with Human immunodeficiency virus 1. The experiment in a line: Antiviral activity against HIV1 3B-induced cytopathic effect in MT4 cells assessed as inhibition of virus-induced syncytium formation. As to conditions: Human immunodeficiency virus 1, 3B. The format is functional, organism-based.
Data set [4] concerns the target Human immunodeficiency virus type 1 reverse transcriptase (Human immunodeficiency virus 1) (UniProt Q72547). As to the kind of experiment: Inhibition of HIV1 reverse transcriptase at 100 ug/ml.
The subject of data set [5] is Human immunodeficiency virus 2. As to the kind of experiment: Inhibition of HIV2 ROD replication in MT4 cells. Format: functional, organism-based.
For data set [6], the target named is Human immunodeficiency virus type 1 reverse transcriptase (Human immunodeficiency virus 1) (UniProt Q72547). The experiment in a line: Inhibition of HIV1 reverse transcriptase at 10 ug/ml.
Data set [7] is described as follows: Selectivity index, ratio of CC50 for mock-infected CEM cells to EC50 for HIV1 3B. The format is functional, CCRF-CEM.
A short description of data set [8]: Cytotoxicity against mock-infected CEM cells assessed as reduction of cell viability. The format is cell-based. To be noted: human, mock-infected CEM (CCRF-CEM) cells.
Data set [9] has as its system Human immunodeficiency virus 1. As to the kind of experiment: Antiviral activity against HIV1 3B-induced cytopathic effect in CEM cells assessed as inhibition of virus-induced syncytium formation. Format: functional, organism-based. To be noted: Human immunodeficiency virus 1, 3B, CCRF-CEM. On the technique in general: Protection from cytopathic effect is a common read-out in antiviral testing.

Calls of active or inactive are those of the source. The calls are words filed in the database; no cut-off is given here.

On to `Clc1cccc(Cl)c1C1SCc2nc3ccccc3n21` (configuration not stated), for which, in data set [1], the “Ratio CC50/EC50” value worked out at 16. The CC50 in data set [2] turned out to be 9.4 µM. Further, the EC50 in data set [3] (read-out: EC50) came to 0.6 µM.
In the case of `O=C1CSC(c2c(F)cccc2Cl)N1c1nc(-c2ccccc2)cc(-c2ccccc2)n1` (configuration not stated), the “Ratio CC50/EC50” value in data set [1] is recorded as less than 1. Also, the inhibition in data set [4] came out at 66.7%; in [6] it was 55.6%. Also, in data set [5], the outcome was inactive. The CC50 in data set [2] was greater than 201 µM. For the same molecule, the EC50 in data set [3] (read-out: EC50) is greater than 242 µM.
Consider `Cc1cc(-c2ccccc2)nc(N2C(=O)CSC2c2c(F)cccc2F)n1` (configuration not stated), for which the “Ratio CC50/EC50” value in data set [1] and in data set [7] was 6 in each case. Further, the inhibition is 54.2% in data set [4] and 47.4% in data set [6]. Also, the outcome in [5] was inactive. For the same molecule, the cytotoxic concentration (CC50) in data set [2] and in [8] was 36.5 µM in each case. Also, the EC50 in data set [9] was 5.6 µM; in [3] (read-out: EC50), 6.4 µM; in data set [3] (read-out: Log EC50 (converted)) it was 6.31 µM.
For the molecule `Cc1cc(N2C(=O)CSC2c2c(F)cccc2F)nc(C)n1` (configuration not stated), the “Ratio CC50/EC50” value in data set [1] was found to be 11; in data set [7] it was 13. Besides, the figures for the inhibition in data set [4] and in data set [6] were 58.1% and 27.2%, respectively. In addition, the outcome in data set [5] was inactive. The CC50 in data set [2] and in data set [8] was 272 µM throughout. The EC50 in data set [9] was 20.3 µM; in data set [3] (read-out: EC50), 25.5 µM; in data set [3] (read-out: Log EC50 (converted)), 25.1 µM.
On to `Cc1nc(N2C(=O)CSC2c2c(F)cccc2F)nc(C)c1C` (configuration not stated), for which the “Ratio CC50/EC50” value is 880 in [1] and greater than 1222 in [7]. Moreover, the inhibition was determined as 100% in [4] and 96.3% in data set [6]. Besides, the result in [5] was inactive. Also, the CC50 is 341 µM in [2] and greater than 373 µM in data set [8]. Moreover, the half-maximal effective concentration (EC50) in data set [9] was 0.3 µM; in [3] (read-out: EC50), 0.4 µM; in data set [3] (read-out: Log EC50 (converted)), 0.398 µM.
Consider `O=C1CSC(c2c(F)cccc2Cl)N1c1nc(-c2ccccc2)cc(C(F)(F)F)n1` (configuration not stated), for which the “Ratio CC50/EC50” value in data set [1] worked out at 9. Besides, the inhibition in data set [4] was found to be 20.6%; in [6] it was 43.9%. Besides, the outcome in [5] was inactive. Also, the 50% cytotoxic concentration (CC50) in data set [2] stood at 93.9 µM. Also, the 50% effective concentration (EC50) in [3] (read-out: EC50) was greater than 10.8 µM.
`O=C1CSC(c2c(F)cccc2F)N1c1nc(-c2ccccc2)cc(-c2ccccc2)n1` (configuration not stated): in data set [1], the “Ratio CC50/EC50” value is less than 1. In addition, the inhibition in [4] was found to be 44%; in data set [6], 30.1%. In data set [5], the result was inactive. Moreover, the CC50 in data set [2] came to 177 µM. Further, the 50% effective concentration (EC50) in [3] (read-out: EC50) is greater than 167 µM.
Take `Cc1cc(N2C(=O)CSC2c2c(F)cccc2Cl)nc(C)n1` (configuration not stated): the “Ratio CC50/EC50” value came out at 11 in data set [1] and 12 in data set [7]. The inhibition in [4] is 48.6%; in [6], 9.3%. For the same molecule, in [5], the outcome was inactive. For the same molecule, the CC50 in [2] and in [8] was 47.6 µM each time. Moreover, the figures for the EC50 in data set [9], in data set [3] (read-out: EC50) and in data set [3] (read-out: Log EC50 (converted)) were 4.1 µM, 4.3 µM and 3.98 µM, respectively.
Turning to `O=C1CSC(c2c(Cl)cccc2Cl)N1c1nc(-c2ccccc2)cc(C(F)(F)F)n1` (configuration not stated), in [1], the “Ratio CC50/EC50” value is recorded as less than 1. In addition, the values for the inhibition in data set [4] and in [6] were 39.4% and 25.4%, respectively. The result in [5] was inactive. For the same molecule, the CC50 in [2] was determined as 140 µM. Besides, the EC50 in data set [3] (read-out: EC50) is greater than 80.2 µM.
In the case of `Cc1cc(N2C(=O)CSC2c2c(Cl)cccc2Cl)nc(C)n1` (configuration not stated), the results for the “Ratio CC50/EC50” value in data set [1] and in data set [7] were 10 and 11, respectively. Further, the figures for the inhibition in data set [4] and in data set [6] were 51.9% and 6.6%, respectively. Besides, the result in data set [5] was inactive. Besides, the CC50 in data set [2] came out at 41.3 µM; in data set [8] it was 42 µM. Besides, the EC50 in data set [9] was 3.8 µM; in data set [3] (read-out: EC50), 4.3 µM; in data set [3] (read-out: Log EC50 (converted)) it was 3.98 µM.
As for `Cc1nc(N2C(=O)CSC2c2c(F)cccc2Cl)nc(C)c1C` (configuration not stated), the values for the inhibition in [4] and in data set [6] were 100% and 99.3%, respectively.
Take `Cc1cc(C(F)(F)F)nc(N2C(=O)CSC2c2c(F)cccc2F)n1` (configuration not stated): the “Ratio CC50/EC50” value is given as 25 in data set [1] and 32 in data set [7]. The inhibition stood at 38.9% in [4] and 32.3% in data set [6]. Besides, the result in data set [5] was inactive. In addition, the values for the CC50 in [2] and in data set [8] were 125 µM and 140 µM, respectively. Further, the values for the EC50 in [9], in data set [3] (read-out: EC50) and in data set [3] (read-out: Log EC50 (converted)) were 4.4 µM, 5 µM and 5.01 µM, respectively.
Turning to `Fc1cccc(F)c1C1SCc2nc3ccccc3n21` (configuration not stated) [THIAZOLOBENZIMIDAZOLE], the “Ratio CC50/EC50” value in data set [1] was determined as 54.5; in data set [7], 45. In addition, the figures for the EC50 in [9] and in [3] (read-out: EC50) were 1.1 µM and 0.35 µM, respectively.
As for `O=C1CSC(c2c(Cl)cccc2Cl)N1c1nc(-c2ccccc2)cc(-c2ccccc2)n1` (configuration not stated), the “Ratio CC50/EC50” value in data set [1] was less than 1. Also, the inhibition amounted to 51.4% in data set [4] and 31.6% in data set [6]. For the same molecule, the outcome in [5] was inactive. The CC50 in data set [2] was found to be 193 µM. Also, the EC50 in data set [3] (read-out: EC50) is greater than 195 µM.
Consider `Cc1cc(C(F)(F)F)nc(N2C(=O)CSC2c2c(F)cccc2Cl)n1` (configuration not stated), for which the “Ratio CC50/EC50” value in data set [1] is on record as 13; in data set [7] it was 18. Besides, the inhibition is 93.7% in [4] and 46.3% in [6]. Moreover, the result in [5] was inactive. The CC50 in data set [2] was 16.9 µM; in data set [8], 19.3 µM. For the same molecule, the EC50 is 1.1 µM in data set [9], 1.3 µM in [3] (read-out: EC50) and 1.26 µM in data set [3] (read-out: Log EC50 (converted)).
Turning to `Cc1cc(-c2ccccc2)nc(N2C(=O)CSC2c2c(Cl)cccc2Cl)n1` (configuration not stated), the “Ratio CC50/EC50” value in data set [1] and in data set [7] was 6 each time. The values for the inhibition in data set [4] and in data set [6] were 51.5% and 18%, respectively. The outcome in [5] was inactive. Also, the CC50 in [2] and in [8] was 35.3 µM in each case. The EC50 in [9] was 5.8 µM; in [3] (read-out: EC50) it was 6.1 µM; in data set [3] (read-out: Log EC50 (converted)), 6.31 µM.
As to `Cc1cc(C(F)(F)F)nc(N2C(=O)CSC2c2c(Cl)cccc2Cl)n1` (configuration not stated), the “Ratio CC50/EC50” value in data set [1] is 46; in [7], 62. The values for the inhibition in [4] and in data set [6] were 43.7% and 32.9%, respectively. In addition, the result in [5] was inactive. In addition, the CC50 in [2] came out at 46.4 µM; in [8], 46.7 µM. Further, the figures for the EC50 in data set [9], in [3] (read-out: EC50) and in data set [3] (read-out: Log EC50 (converted)) were 0.8 µM, 1 µM and 1 µM, respectively.
With `Cc1cc(-c2ccccc2)nc(N2C(=O)CSC2c2c(F)cccc2Cl)n1` (configuration not stated), the “Ratio CC50/EC50” value in data set [1] was 38; in data set [7], 44. In addition, the inhibition in data set [4] is 79.9%; in data set [6], 32.7%. Also, the outcome in data set [5] was inactive. In addition, the CC50 was 146 µM in [2] and 172 µM in data set [8]. Further, the EC50 in data set [9] was 3.9 µM; in [3] (read-out: EC50), 3.9 µM; in [3] (read-out: Log EC50 (converted)), 3.98 µM.
Turning to `O=C1CSC(c2c(F)cccc2F)N1c1nc(-c2ccccc2)cc(C(F)(F)F)n1` (configuration not stated), the “Ratio CC50/EC50” value in data set [1] is reported as less than 1. Besides, the figures for the inhibition in data set [4] and in [6] were 6.6% and 15.6%, respectively. Further, the outcome in [5] was inactive. Besides, in data set [2], the CC50 was 74.3 µM. Moreover, the EC50 in data set [3] (read-out: EC50) was greater than 123 µM.
For the molecule `Cc1nc(N2C(=O)CSC2c2c(Cl)cccc2Cl)nc(C)c1C` (configuration not stated), the inhibition in data set [4] was found to be 100%; in data set [6], 94.8%.
